Results reported in patent publication US11408022B2, “Preparation method of anti-oxidation polypeptide” (Fu Zhou University, priority 2018, dated 2022).
Where no end group is shown, it is not given here.

Experiments:
Type in all cases: biochemical
[1] = ABTS radical elimination activity; conditions: 1 mg/mL
Description: 7 mM ABTS mother solution and 2.45 mM potassium peroxydisulfate solution were respectively prepared and stored for later use. The two solutions were mixed in a ratio of 1:1 before use. The mixed solution was placed still at room temperature for 16 h, and then diluted with phosphate buffer solution (5 mM, 7.4 pH) to obtain an ABTS radical solution with absorbance of 0.70±0.02 at the wavelength of 734 nm. The ABTS radical solution was mixed with samples of different concentrations and equal volume; after 10 min reaction at room temperature, the absorbance of the mixtures was determined at the wavelength of 734 nm; and finally, the mixtures were zero-set using the phosphate buffer solution (5 mM, 7.4 pH). In the control group, distilled water was used to replace samples. The elimination rate of ABTS radicals of the sample was calculated using the following equation: […]
In the equation: • Acontrol—absorbance of the control group • Asample—absorbance of the sample

[2] = DPPH radical elimination activity; conditions: 1 mg/mL
Description: 1 mL of the sample of different concentrations was respectively well mixed with 1 mL of DPPH solution ([…], prepared using 95% ethanol). The mixed solutions were kept still in shadow at room temperature for 30 min, and then the absorbance was determined at the wavelength of 517 nm. 1 mL of 95% ethanol solution in replacement of the DDPPH solution was used to prepare the sample reference group; and the control group included 1 mL of DPPH solution and 1 mL of 95% ethanol solution. The elimination rate of DPPH radicals of the sample was calculated using the following equation: […]
In the equation, • Ai—absorbance of the sample group • Aj—absorbance of the sample reference group • A0—absorbance of the control group

[3] = Oxygen radical absorption capacity

Q: Which results are given for “GAAVAL [anti-oxidation polypeptide, hexapeptide isolated from alkali protease hydrolysate of black shark skins]”?
A: Elimination rate of ABTS radicals [1]: 64.12±0.20%; Elimination rate of DPPH radicals [2]: 67.00±0.24%; Oxygen radical absorption capacity [3]: 527.53±65.15 μmol Trolox/g peptide
